In PubChem BioAssay AID1996:
Converted amounts (≈) assume the structure as drawn.

Conditions: buffer; pH 7.4; 200.0 µM

SMILES	solubility kinetic
CCCCNc1nc(Cl)nc(Nc2ccc(C)cc2)n1	1.7 µg/mL (≈ 5.83 µM)
Cc1ccc(-c2csc3nc[nH]c(=O)c23)cc1	19.5 µg/mL (≈ 80.5 µM)
NC(=S)NC1CC2CC1C1C=CCC21 (centres undefined)	> 31.2 µg/mL
Cc1nc2c(ccc3nc(NC(=O)C4CC4)sc32)s1	2.8 µg/mL (≈ 9.68 µM)
CCC(C)C(Nc1ncnc2scc(-c3ccccc3)c12)C(=O)O (centres undefined)	> 51.2 µg/mL
Cc1ccc(Nc2nnc(SCC(=O)NCC3CCCO3)s2)cc1C (centres undefined)	> 56.8 µg/mL
CCCOCCc1nnc(N)s1	> 28.1 µg/mL
Cc1cccc(N2CN=c3s/c(=C\c4ccccn4)c(=O)n3C2)c1	5.3 µg/mL (≈ 15.8 µM)
O=c1[nH]oc2cc(Cl)ccc12	> 25.4 µg/mL
O=C(COc1ccc(Br)cc1)N1CCc2ccccc21	< 0.7 µg/mL
CCC(C)Nc1nc(N)c([N+](=O)[O-])c(NCCO)n1 (centres undefined)	39.6 µg/mL (≈ 147 µM)
CCOc1ccccc1NC(=O)CN1CCC(NC(=O)Nc2ccccc2)CC1	18.5 µg/mL (≈ 46.7 µM)
O=S(=O)(NCc1ccco1)c1cnc(Cl)c(Cl)c1	> 46.1 µg/mL
CSc1ccccc1NC(=O)c1cc(Cl)sc1Cl	1.4 µg/mL (≈ 4.4 µM)
O=C(COC(=O)/C=C/c1ccc(Br)o1)Nc1cccc(S(=O)(=O)N2CCOCC2)c1	5.9 µg/mL (≈ 11.8 µM)
COc1ccc(NC(=O)c2cc(S(=O)(=O)N3CCOCC3)ccc2C)cc1S(=O)(=O)N1CCOCC1	> 80.9 µg/mL
N#C/C(=C\c1cccnc1)C(=O)Nc1ccccc1[N+](=O)[O-]	30.2 µg/mL (≈ 103 µM)
CSc1nc2ccc(NC(=O)c3cccs3)cc2s1	2.7 µg/mL (≈ 8.81 µM)
CC1CCCC(C)N1C(=O)COC(=O)c1ccccc1O (centres undefined)	42.3 µg/mL (≈ 145 µM)
COc1ccccc1N1CCN(C(=O)Cc2ccc(Cl)cc2)CC1	50.6 µg/mL (≈ 147 µM)
CN(C)S(=O)(=O)c1ccc(NC=C(C#N)C#N)cc1	26.3 µg/mL (≈ 95.2 µM)
CC(C)(C)C(=O)O/N=C(\N)c1c(Cl)cccc1Cl	30.9 µg/mL (≈ 107 µM)

SMILES	solubility kinetic
CN(Cc1ccc(Cl)cc1)C(=O)c1ccc2ccccc2n1	> 46.6 µg/mL
O=C(Nc1ccon1)Nc1cc(Cl)ccc1Cl	1.4 µg/mL (≈ 5.15 µM)
O=Cc1c(C(=O)O)n(Cc2ccc(F)cc2Cl)c2ccccc12	> 49.8 µg/mL
Nc1c(C(=O)N2CCCCCC2)oc2ccccc12	> 38.7 µg/mL
O=C(O)C1C2C=CC(C2)C1C(=O)Nc1cccc(C(F)(F)F)c1 (centres undefined)	10.3 µg/mL (≈ 31.7 µM)
O=C(NC(=S)Nc1ccc(Br)cc1F)C1CCCCC1	0.9 µg/mL (≈ 2.51 µM)
CC1(C)NC(=O)N(Cc2cc(=O)n3ccsc3n2)C1=O	> 43.8 µg/mL
CCCN1CNC(=S)N(c2ccccc2C)C1	> 37.4 µg/mL
COc1ccc(N2CCN(c3ccc([N+](=O)[O-])nc3)CC2)cc1	3 µg/mL (≈ 9.54 µM)
Cn1cnc2cc(NCc3cccs3)ccc21	27.1 µg/mL (≈ 111 µM)
Cc1ccc(CNCCc2ccc(F)cc2)s1	26.7 µg/mL (≈ 107 µM)
COc1ccccc1C(=O)NC(=O)COC(=O)C1CC1	> 41.6 µg/mL
O=C(Nc1ccc(SC(F)F)cc1)c1ccc(F)cc1	1.3 µg/mL (≈ 4.37 µM)
Cc1cccc(NC(=S)N(CCN(C)C)Cc2cccs2)c1	46.7 µg/mL (≈ 140 µM)
Cc1cccc(C(=O)Nc2ccc(NC(=O)c3ccccc3)cc2)c1	1 µg/mL (≈ 3.03 µM)
CC(=O)N1CCC[C@H]1C(=O)O	> 23.6 µg/mL
O=C(CSc1nnc(-c2ccncc2)o1)N1CCCC1	> 43.6 µg/mL
Clc1ccccc1-c1ncc(-c2ccccc2)o1	< 0.5 µg/mL
Cc1cccn2c(=O)c(/C=N/O)c(Nc3ccccc3F)nc12	0.2 µg/mL (≈ 0.64 µM)
O=[N+]([O-])c1ccc(Nc2nc(Cl)nc(NCCO)n2)cc1	2.6 µg/mL (≈ 8.37 µM)
Nc1cc(C(F)(F)F)ccc1N1CCOCC1	36.7 µg/mL (≈ 149 µM)
CCCCCCCNc1cccc(C)c1	< 0.4 µg/mL
